Experimental data as given in patent US20240270748A1 (Merck Patent GmbH, priority 2021, published 2024).
Structures can show the parent of a compound that is named as a salt.

Legend:
YAP-TEAD interaction = assay: SK-HEP-1 reporter assay (8xTEAD responsive elements driving NanoLuc luciferase); assay type: cell-based
Procedure, shortened: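 Reporter read-out: NanoLuc luminescence from 8×TEAD elements stably integrated in SK-HEP-1 cells, after 24 h compound exposure at 37° C. Ten concentrations tested in duplicate, top 30 μM final, 0.3% DMSO; IC50 from curve.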

NCI-H226 cells = assay: Viability assay in NCI-H226 (Yap-dependent) cells, CyQuant; assay type: cell-based, human
Description: (§1) Viability Assay in NCI-H226 (Yap-Dependent) and SW620 Yap KO (Yap Independent) Cells
(§2) The ability of YAP-TEAD inhibitors to inhibit tumor cell growth was evaluated using two different cell lines: NCI-H226, which is a YAP dependent cell line, and SW620 cells, where YAP and TAZ were knocked out using CRISPR to generate a YAP independent cell line.
(§3) For the assay, cells were treated in duplicates with the test compounds in a 10-point dose, 1:3 dilution steps, with the top concentration starting at 30 μM (final concentration in assay). After a 96 hour incubation at 37° C., 95% rH, and 5% CO2, a cell-permeant DNA-binding dye that stains only healthy cells (CyQUANT®, Promega) was added to the cells, allowing the quantification of cell viability.
(§4) Cell Media: The NCI-H226 cells were cultured in the following media: RPMI 1640, +10% FBS, +1× GlutaMAX, +10 mM HEPES, +0.5% Pen/Strep. The SW620-KO cells were cultured in the following media: DMEM/F-12, +10% FBS, +1× GlutaMAX, +10 mM HEPES, +0.5% Pen/Strep.
(§5) Reagents: The reagents used are listed below:
(§6) Cell culture: The cells were examined using an inverted microscope to check for health, cell density, etc. To dissociate adherent cells, the monolayer of cells was washed once with pre-warmed PBS. After removing the PBS, 3 ml pre-warmed Accutase was added to a F75 flask, dispersed evenly and the flask was allowed to sit in incubator for ˜4-5 minutes.
(§7) When a single cell suspension was obtained, 7 ml of prewarmed growth media was added and resuspended with the cells. The cell suspension was transferred to a sterile 15 ml conical centrifuge tube, and spun for 5 min at 300×g, RT. The supernatant was discarded and the pellet was resuspended in 10 ml of pre-warmed growth media.
(§8) The total cell count was determined, and 20 μl of the desired cell number was added to each well of a 384 well plate using a Multidrop Combi. The plates were then incubated for 24 hours at 37° C., 95% rH, and 5% CO2.
(§9) Compound treatment: 24 hours after seeding, the cells were treated with compounds.
(§10) A 1:333 dilution of compounds, diluted in DMSO, was made to get a final concentration of 0.3% DMSO per well. To transfer the compounds to the assay plate, […] was shot from Labcyte low dead volume plates to the cell plates containing 20 μl media/well with the ECHO 555 liquid handling system.
(§11) After treatment, the cells were fed with 20 μl fresh pre-warmed assay media using a Multidrop combi.
(§12) The assay plates were then incubated for 96 h at 37° C., 95% rH, and 5% CO2.
(§13) 96 h after treatment 30 μl of CyQuant® reagent was added to the assay plates using a Multidrop combi in the dark. The plates were then incubated for 1 hour at 37° C., 95% rH and 5% CO2. Thereafter, the assay plates were removed from the incubator and allowed to equilibrate to RT for 30 min in the dark without lid. Finally, they were measured using an EnVision microplate reader with a FITC bottom read program.

SW620 Yap KO cells = assay: Viability assay in SW620 Yap KO (Yap independent) cells, CyQuant; assay type: cell-based; conditions: n.d. = value not detectable below threshold given in parentheses
Description: as §1, §2, §3, §4, §5, §6, §7, §8, §9, §10, §11, §12, §13

[1] = Homo sapiens, SK-HEP1, SK-HEP-1 reporter assay, n.d. = value not detectable below threshold given in parentheses
[2] = Homo sapiens, NCI-H226, 96 h, class symbols
[3] = Homo sapiens, SK-HEP1, SK-HEP-1 reporter assay, class symbols
[4] = Homo sapiens, SW-620, 96 h, ND = not determinable within the entire range
[5] = SK-HEP-1 reporter assay, class symbols
[6] = Homo sapiens, SK-HEP1, SK-HEP-1 reporter assay, n.d. = value not detectable below threshold given in parentheses, ND = not determinable within the entire range

Row | SMILES | IC50 (NCI-H226 cells; [2]) [nM] | IC50 (YAP-TEAD interaction; [3]) [nM] | other results
1 | Cn1cc2c3cc(C(=O)N=[S@@](=O)(CCO)Cc4ccccn4)ccc3n(-c3ccc(C(F)(F)F)cc3)c2n1 (single isomer, unassigned) [Example C177] | 100 to 1000 |  | IC50 (YAP-TEAD interaction; [1]): > 6500 nM; IC50 (SW620 Yap KO cells; Homo sapiens, SW-620, 96 h): > 3000 nM
2 | Cc1ccc(-n2c3ccc(C(=O)N[C@H](C)CO)cc3c3cn(C)nc32)cc1 [Example C131, N-[(2R)-1-hydroxypropan-2-yl]-2-methyl-8-(4-methylphenyl)-2H,8H-pyrazolo[3,4-b]indole-5-carboxamide] | 100 to 1000 | 100 to 10000 | IC50 (SW620 Yap KO cells; [4]): > 30000 nM
3 | Cn1cc2c3cc(C(=O)N=[S@](=O)(CCCO)Cc4ccccn4)ccc3n(-c3ccc(C(F)(F)F)cc3)c2n1 (single isomer, unassigned) [Example C213] |  |  | IC50 (YAP-TEAD interaction; SK-HEP-1 reporter assay, n.d. = value not detectable below threshold given in parentheses): > 300 nM; IC50 (NCI-H226 cells; 96 h, class symbols): 1 to 100 nM; IC50 (SW620 Yap KO cells; Homo sapiens, SW-620, 96 h): > 3000 nM
4 | Cn1cc2c3cc(N=S(C)(C)=O)ccc3n(-c3ccc(C(F)(F)F)cc3)c2n1 [Example C106, dimethyl({2-methyl-8-[4-(trifluoromethyl)phenyl]-2H,8H-pyrazolo[3,4-b]indol-5-yl}imino)-\6-sulfanone] | 100 to 1000 | 10 to 100 | IC50 (SW620 Yap KO cells; [4]): > 30000 nM
5 | Cn1cc2c3cc(C(=O)N[C@H](CCO)c4ccccn4)ccc3n(-c3ccc(C(F)(F)F)cc3)c2n1 (single isomer, unassigned) [Example C239] | 100 to 1000 | 100 to 10000 | 
6 | Cn1cc2c3cc(NS(=O)(=O)Cc4ccccn4)ccc3n(-c3ccc(C(F)(F)F)cc3)c2n1 [Example C130, N-{2-methyl-8-[4-(trifluoromethyl)phenyl]-2H,8H-pyrazolo[3,4-b]indol-5-yl}-1-(pyridin-2-yl)methanesulfonamide] |  |  | IC50 (YAP-TEAD interaction; [6]): > 30000 nM; IC50 (NCI-H226 cells; Homo sapiens, NCI-H226, 96 h, n.d. = value not detectable below threshold given in parentheses): > 3 nM
7 | Cn1cc2c3cc(NS(=O)(=O)Cc4cccnc4)ccc3n(-c3ccc(C(F)(F)F)cc3)c2n1 [Example C129, N-{2-methyl-8-[4-(trifluoromethyl)phenyl]-2H,8H-pyrazolo[3,4-b]indol-5-yl}-1-(pyridin-3-yl)methanesulfonamide] | 1000 to 10000 |  | IC50 (YAP-TEAD interaction; [6]): > 10000 nM
8 | Cn1cc2c3cc(C(=O)N4CC[C@H](O)C4)ccc3n(-c3ccc(C(F)(F)F)cn3)c2n1 [Example C151, (3S)-1-{2-methyl-8-[5-(trifluoromethyl)pyridin-2-yl]-2H,8H-pyrazolo[3,4-b]indole-5-carbonyl}pyrrolidin-3-ol] | 100 to 1000 |  | IC50 (YAP-TEAD interaction; [6]): > 10000 nM
9 | Cn1cc2c3cc(C(=O)O)cnc3n(-c3ccc(C(F)(F)F)cc3)c2n1 [Example 37, 4-methyl-7-[4-(trifluoromethyl)phenyl]-4,5,7,9-tetraazatricyclo[6.4.0.0^2,6]dodeca-1(8),2,5,9,11-pentaene-11-carboxylic acid] |  |  | IC50 (YAP-TEAD interaction; [5]): 1 to 10 nM; IC50 (NCI-H226 cells; 96 h, class symbols): > 10000 nM

Continued, in another order:

Row | IC50 (NCI-H226 cells; [2]) [nM] | IC50 (YAP-TEAD interaction; [3]) [nM] | SMILES | other results
10 | 1 to 100 | 10 to 100 | Cc1snc2c1c1cc(C(=O)NCc3ccccn3)ccc1n2-c1ccc(C(F)(F)F)cc1 [Example C42, 3-methyl-N-[(pyridin-2-yl)methyl]-8-[4-(trifluoromethyl)phenyl]-8H-[1,2]thiazolo[3,4-b]indole-5-carboxamide] | IC50 (SW620 Yap KO cells; [4]): > 30000 nM
11 | 1 to 100 | 10 to 100 | Cn1cnc2c1c1cc(C(=O)N[C@](C)(CO)c3ccccn3)ccc1n2-c1ccc(C(F)(F)F)cc1 [Example C2, N-[(2S)-1-hydroxy-2-(pyridin-2-yl)propan-2-yl]-1-methyl-4-[4-(trifluoromethyl)phenyl]-1H,4H-imidazo [4,5-b]indole-7-carboxamide] | IC50 (SW620 Yap KO cells; [4]): > 30000 nM
12 | 1 to 100 |  | Cn1cc2c3cc(C(=O)N=[S@](=O)(CCCO)Cc4ccncc4)ccc3n(-c3ccc(C(F)(F)F)cc3)c2n1 (single isomer, unassigned) [Example C236] | IC50 (YAP-TEAD interaction; [1]): > 95 nM; IC50 (SW620 Yap KO cells; Homo sapiens, SW-620, 96 h): > 3000 nM
13 | 1 to 100 | 10 to 100 | Cc1snc2c1c1cc(C(=O)N=S(C)(=O)CCCO)ccc1n2-c1ccc(C(F)(F)F)cc1 (stereo not drawn) [Example C16, N-[(3-hydroxypropyl)(methyl) οχο-λ6-sulfanylidene]-3-methyl-8-[4-(trifluoromethyl)phenyl]-8H-[1,2]thiazolo[3,4-b]indole-5-carboxamide] | IC50 (SW620 Yap KO cells; [4]): > 3000 nM
14 | 1 to 100 | 10 to 100 | C[C@H](CO)NC(=O)c1ccc2c(c1)c1cn(C)nc1n2-c1ccc(C(F)F)cc1 [Example C247, 8-[4-(difluoromethyl)phenyl]-N-[(2R)-1-hydroxypropan-2-yl]-2-methyl-2H,8H-pyrazolo[3,4-b]indole-5-carboxamide] | IC50 (SW620 Yap KO cells; Homo sapiens, SW-620, 96 h): > 30000 nM
15 | 1 to 100 | 10 to 100 | Cn1cc2c3cc(C(=O)NC(CO)c4ncc[nH]4)ccc3n(-c3ccc(C(F)(F)F)cc3)c2n1 (stereo not drawn) [Example C273, N-[2-hydroxy-1-(1H-imidazol-2-yl)ethyl]-2-methyl-8-[4-(trifluoromethyl)phenyl]-2H,8H-pyrazolo[3,4-b]indole-5-carboxamide trifluoroacetate] | 
16 | 1 to 100 | 10 to 100 | C[C@@H](NC(=O)c1ccc2c(c1)c1nn(C)nc1n2-c1ccc(C(F)(F)F)cc1)c1ccncc1 [Example C180, 2-methyl-N-[(1R)-1-(pyridin-4-yl)ethyl]-4-[4-(trifluoromethyl)phenyl]-2H,4H-[1,2,3]triazolo[4,5-b]indole-7-carboxamide] | IC50 (SW620 Yap KO cells; Homo sapiens, SW-620, 96 h): > 30000 nM
17 | 1 to 100 |  | CC(NC(=O)c1ccc2c(c1)c1cn(C)nc1n2-c1ccc(C(F)(F)F)cc1)c1ccn[nH]1 (single isomer, unassigned) [Example C75] | IC50 (YAP-TEAD interaction; [5]): 10 to 100 nM; IC50 (SW620 Yap KO cells; 96 h, ND = not determinable within the entire range): > 30000 nM
18 | 1 to 100 | 10 to 100 | Cn1nc2c3cc(C4CC(Cl)=NO4)ccc3n(-c3ccc(C(F)(F)F)cc3)c2n1 (stereo not drawn) [Example C18, 3-chloro-5-{2-methyl-4-[4-(trifluoromethyl)phenyl]-2H,4H-[1,2,3]triazolo[4,5-b]indol-7-yl}-4,5-dihydro-1,2-oxazole] | IC50 (SW620 Yap KO cells; [4]): > 30000 nM
19 | 1 to 100 | 10 to 100 | Cn1ccc(C(CO)NC(=O)c2ccc3c(c2)c2cn(C)nc2n3-c2ccc(C(F)(F)F)cc2)n1 (stereo not drawn) [Example C260, N-[2-hydroxy-1-(1-methyl-1H-pyrazol-3-yl)ethyl]-2-methyl-8-[4-(trifluoromethyl)phenyl]-2H,8H-pyrazolo[3,4-b]indole-5-carboxamide] | IC50 (SW620 Yap KO cells; Homo sapiens, SW-620, 96 h): > 30000 nM
20 | 1 to 100 | 1 to 10 | Cc1snc2c1c1cc(C(=O)NCc3ncccn3)ccc1n2-c1ccc(C(F)(F)F)cc1 [Example C63, 3-methyl-N-[(pyrimidin-2-yl)methyl]-8-[4-(trifluoromethyl)phenyl]-8H-[1,2]thiazolo[3,4-b]indole-5-carboxamide] | 
21 | 1 to 100 | 10 to 100 | Cn1nc2c3cc(C(=O)NC(CO)c4cscn4)ccc3n(-c3ccc(C(F)(F)F)cc3)c2n1 (stereo not drawn) [Example C276, N-[2-hydroxy-1-(1,3-thiazol-4-yl)ethyl]-2-methyl-4-[4-(trifluoromethyl)phenyl]-2H,4H-[1,2,3]triazolo[4,5-b]indole-7-carboxamide] | 
22 | 1 to 100 |  | Cn1cc2c3cc(C(=O)N=[S@](=O)(CCO)Cc4cccnc4)ccc3n(-c3ccc(C(F)(F)F)cc3)c2n1 (single isomer, unassigned) [Example C188] | IC50 (YAP-TEAD interaction; [1]): > 9500 nM
